Source: patent publication US11419806B2, “Prebiotic oral care methods using a saccharide” (Colgate-Palmolive Company, priority 2013, dated 2022)

Assays:
Type in all cases: cell-based
[1] = test system: beneficial oral bacteria and pathogenic oral bacteria; assay: Microarray screen, overall prebiotic assessment; conditions: 48 hrs
Method: Substrates that were able to increase the metabolic activity of at least one of the above beneficial bacteria while not or only minimally increasing the growth of the pathogenic bacteria are considered to be prebiotic substrates.
(§1) The extent of metabolic activity of the tested bacteria in the presence of the above-mentioned saccharides after 24 hours and 48 hours was investigated through a high throughput phenotype microarray system (PM) for microbial cells (Biolog Inc.). Each PM can contain up to 95 different biochemical compounds (e.g. saccharides) that may act as substrates for bacteria as well as one negative control, not containing the substrates. Microarray plates were used in which the different wells of each plate were pre-loaded (by the manufacturer, Biolog Inc.) with different saccharides to be tested. Each bacterial species was tested using a separate microarray plate. Thus, a single bacterial species was tested with a variety of saccharides on each particular plate. The microarrays are based on redox technology, using cell respiration as a universal reporter. Active cell respiration results in the reduction of a tetrazolium dye and in the formation of a strong color—for example, when using the tetrazolium dye “Biolog Redox Dye Mix D”, the color changes from transparent/colorless to purple when the dye is reduced. The observation of this color change indicates which of the substrates improve the metabolic activity and health of the cells.
(§2) Each bacterial species was collected from blood agar plates (incubated for 48 hours anaerobically at 37° C.) and transferred to an IF-0 Base inoculation fluid (Biolog Inc.), which is a nutritionally poor medium. The resulting cell suspension was adjusted to a transmittance of 42% (relative to the transmittance of the base inoculation fluid with no bacterial species present) at 492 nm using a BioRad SmartSpec 3000 Photometer (the adjustment being effected by adding either further inoculation fluid or further bacteria until the transmittance of 42% was achieved). A 1:5 dilution of this suspension was prepared by mixing 3 mL of the 42% transmittance cell suspension with 15 mL of an inoculation fluid (which inoculation fluid was formed by mixing 11.6 mL sterile water, 62.5 mL IF-0 base inoculation fluid and 0.9 mL of the tetrazolium dye “Biolog Redox Dye mix D”), resulting in a final cell density which was equal to 85% transmittance using a BioRad SmartSpec 3000 Photometer. For each of the saccharides tested, the microarray plate (obtained from the supplier (Biolog Inc.) with saccharides already present in the relevant wells in powder form) was directly inoculated with 100 μL/well of this 85% transmittance cell suspension.
(§3) All plates were incubated in an anaerobic atmosphere at 37° C. Color changes were measured spectrophotometrically at 492 nm (Thermo Scientific Multiskan Ascent) at 24 hrs and 48 hrs using the same plate at both time points. […] After 24 hrs and 48 hrs under continuous shaking in a Multiscan microplate reader, the optical density (OD) of the synthetic medium at 24 hours and 48 hours was measured (using the microplate reader) at a wavelength of 492 nm for each combination of bacterium/saccharide, and for each of their respective controls (i.e. which contained the particular bacterium but no saccharide).
(§4) The experiment was carried out three times for each combination of bacterium with saccharide, with each repeat being carried out on a different day (thus providing three biological replicas). The controls were also carried out three times, as above. The values shown are the average (mean) of the three single values obtained (as detailed above) for each combination of bacterium with saccharide, at 24 hrs and at 48 hrs.
This value was selected in order to exclude low-stimulating metabolites and avoid false positive results.

[2] = test system: Streptococcus gordonii; assay: Phenotype microarray metabolic activity; conditions: S gordonii
Method: as §1, §2, §3, §4

[3] = test system: Veillonella parvula; assay: Phenotype microarray metabolic activity; conditions: V parvula
Method: as §1, §2, §3, §4

[4] = test system: Tannerella forsythia; assay: Phenotype microarray metabolic activity; conditions: T forsythia
Method: as §1, §2, §3, §4

[5] = test system: Prevotella intermedia; assay: Phenotype microarray metabolic activity; conditions: P intermedia
Method: as §1, §2, §3, §4

[6] = test system: Streptococcus salivarius; assay: Phenotype microarray metabolic activity; conditions: S salivarius
Method: as §1, §2, §3, §4

[7] = test system: Porphyromonas gingivalis; assay: Phenotype microarray metabolic activity; conditions: P gingivalis
Method: as §1, §2, §3, §4

[8] = test system: Streptococcus mutans; assay: Phenotype microarray metabolic activity; conditions: S mutans
Method: as §1, §2, §3, §4

[9] = test system: Actinomyces naeslundii; assay: Phenotype microarray metabolic activity; conditions: A naeslundii
Method: as §1, §2, §3, §4

[10] = test system: Aggregatibacter actinomycetemcomitans; assay: Phenotype microarray metabolic activity; conditions: A actinomycetemcomitans
Method: as §1, §2, §3, §4

[11] = test system: Capnocytophaga sputigena; assay: Phenotype microarray metabolic activity; conditions: C sputigena
Method: as §1, §2, §3, §4

[12] = test system: S sanguinis; assay: Phenotype microarray metabolic activity
Method: as §1, §2, §3, §4

[13] = test system: Streptococcus sobrinus; assay: Phenotype microarray metabolic activity; conditions: S sobrinus
Method: as §1, §2, §3, §4

[14] = test system: Fusobacterium nucleatum; assay: Phenotype microarray metabolic activity; conditions: F nucleatum
Method: as §1, §2, §3, §4

[15] = test system: Streptococcus mitis; assay: Phenotype microarray metabolic activity; conditions: S mitis
Method: as §1, §2, §3, §4

[16] = test system: Actinomyces viscosus; assay: Phenotype microarray metabolic activity; conditions: A viscosus
Method: as §1, §2, §3, §4

Structure (SMILES): OC[C@H]1O[C@@](CO)(O[C@H]2O[C@H](CO)[C@@H](O)[C@H](O)[C@H]2O)[C@@H](O[C@H]2O[C@H](CO)[C@@H](O)[C@H](O)[C@H]2O)[C@@H]1O [D-Melezitose, (2R,3R,4S,5S,6R)-2-[[(2S,3S,4R,5R)-4-hydroxy-2,5-bis(hydroxymethyl)-3-[[(2R,3R,4S,5S,6R)-3,4,5-trihydroxy-6-(hydroxymethyl)-2-tetrahydropyranyl]oxy]-2-tetrahydrofuranyl]oxy]-6-(hydroxymethyl)tetrahydropyran-3,4,5-triol]
- prebiotic effects (metabolic activity, threshold value 2) [1]: exhibited prebiotic effects
- metabolic activity: OD 492 nm divided by OD of control (control = 1) ([2]; 24 hrs): 1.0421
- metabolic activity: OD 492 nm divided by OD of control (control = 1) ([2]; 48 hrs): 0.9733
- metabolic activity: OD 492 nm divided by OD of control (control = 1) ([3]; 24 hrs): 0.9056
- metabolic activity: OD 492 nm divided by OD of control (control = 1) ([3]; 48 hrs): 0.7447
- metabolic activity: OD 492 nm divided by OD of control (control = 1) ([4]; 24 hrs): 1.0374
- metabolic activity: OD 492 nm divided by OD of control (control = 1) ([4]; 48 hrs): 0.9912
- metabolic activity: OD 492 nm divided by OD of control (control = 1) ([5]; 24 hrs): 1.0189
- metabolic activity: OD 492 nm divided by OD of control (control = 1) ([5]; 48 hrs): 0.9864
- metabolic activity: OD 492 nm divided by OD of control (control = 1) ([6]; 24 hrs): 1.0195
- metabolic activity: OD 492 nm divided by OD of control (control = 1) ([6]; 48 hrs): 0.9869
- metabolic activity: OD 492 nm divided by OD of control (control = 1) ([7]; 24 hrs): 0.7783
- metabolic activity: OD 492 nm divided by OD of control (control = 1) ([7]; 48 hrs): 0.7811
- metabolic activity: OD 492 nm divided by OD of control (control = 1) ([8]; 24 hrs): 1.0420
- metabolic activity: OD 492 nm divided by OD of control (control = 1) ([8]; 48 hrs): 0.9402
- metabolic activity: OD 492 nm divided by OD of control (control = 1) ([9]; 24 hrs): 1.5398
- metabolic activity: OD 492 nm divided by OD of control (control = 1) ([9]; 48 hrs): 2.0357
- metabolic activity: OD 492 nm divided by OD of control (control = 1) ([10]; 24 hrs): 0.8425
- metabolic activity: OD 492 nm divided by OD of control (control = 1) ([10]; 48 hrs): 0.7710
- metabolic activity: OD 492 nm divided by OD of control (control = 1) ([11]; 24 hrs): 0.5937
- metabolic activity: OD 492 nm divided by OD of control (control = 1) ([11]; 48 hrs): 0.9124
- metabolic activity: OD 492 nm divided by OD of control (control = 1) ([12]; 24 hrs): 1.0227
- metabolic activity: OD 492 nm divided by OD of control (control = 1) ([12]; 48 hrs): 1.0532
- metabolic activity: OD 492 nm divided by OD of control (control = 1) ([13]; 24 hrs): 1.1016
- metabolic activity: OD 492 nm divided by OD of control (control = 1) ([13]; 48 hrs): 1.0504
- metabolic activity: OD 492 nm divided by OD of control (control = 1) ([14]; 24 hrs): 0.9719
- metabolic activity: OD 492 nm divided by OD of control (control = 1) ([14]; 48 hrs): 0.8307
- metabolic activity: OD 492 nm divided by OD of control (control = 1) ([15]; 24 hrs): 1.1736
- metabolic activity: OD 492 nm divided by OD of control (control = 1) ([15]; 48 hrs): 1.0570
- metabolic activity: OD 492 nm divided by OD of control (control = 1) ([16]; 24 hrs): 1.7502
- metabolic activity: OD 492 nm divided by OD of control (control = 1) ([16]; 48 hrs): 2.9576
